# Legend:
# [1] = test system: 7TMR for vasoactive intestinal peptide; assay: Vasoactive intestinal peptide-stimulated cAMP accumulation in human thyrocytes; type: cell-based
# Description: (§1) This was important because it has been shown that TSHR mutants signal differently in different cell types. […] TSH and the small molecule ligand agonist that were identified previously specifically increase expression of several genes in thyrocytes (J Biomol Screen 13, 120, 2008; Proc Nat Acad Sci 106, 12471, 2009).
# [2] = test system: TPO, TSHR, TG, DIO2 and NIS mRNAs; assay: Basal expression of thyroid gene mRNAs in primary cultures of human thyrocytes (quantitative RT-PCR); type: cell-based; settings: 30 μM, 48 hr, IBMX, no agonist
# Experimental: FIG. 4B) Thyrocytes were incubated in media containing 2% fetal bovine serum and 1 mM IBMX without or with 30 μM 1 as described in Methods. After 48 h, the cells were lysed and the levels of the mRNAs were measured and normalized to GAPDH mRNA. The mRNA levels are presented as fold stimulation over control. The data are from three independent experiments with duplicate samples are shown.
# Culture of primary human thyrocytes.
# (§2) Quantitative RT-PCR. mRNA levels were measured using primers and probes were from Applied Biosystems. Quantitative RT-PCR results were normalized to GAPDH to correct for differences in RNA input.
# beta-adrenergic receptor = assay: Isoproterenol-stimulated cAMP accumulation in human thyrocytes; type: cell-based
# Description: as §1
# adenylyl cyclase = assay: Forskolin-stimulated cAMP accumulation in human thyrocytes; type: cell-based
# Description: as §1
# TPO mRNA = assay: Basal and TSAb-induced up-regulation of TPO mRNA in primary cultures of human thyrocytes; type: cell-based; settings: 30 μM, 1:10 dilutions of GD sera, 48 hr
# Experimental: Thyrocytes were incubated in DMEM containing 2% fetal bovine serum without (Control) or with 30 μM compound S2-6 without (basal) or with 1:10 dilutions of GD sera at 37 C. After 48 hr, the buffers were aspirated, the cells were lysed and the levels of TPO mRNA were measured and normalized to GAPDH mRNA. The mRNA levels are presented as fold of basal levels (Control). The data from 2 independent experiments with duplicate samples are shown.
# as §2
# TSHR [3] = target: T1, TSHR (Homo sapiens, UniProt P16473); settings: cited from earlier work
# T1 construct: expressed in transfected cells
# TSHR [4] = target: T1, TSHR; assay: Graves' disease sera-stimulated cAMP production in HEKTSHR cells; type: cell-based; settings: 1:30 dilutions of thirty GD sera
# Experimental: FIG. 13A. […] After an additional 40 min, the incubation was stopped and total cAMP levels were measured by ELISA. The data are from one experiment with triplicate samples and are representative of 3 experiments. The effects of compound S2-6 were significant by paired t-test (P<0.01).
# FIG. 13B. HEKTSHR cells were incubated without (Control) or with 30 μM compound S2-6 for 20 min and then 1 mM IBMX and 1:30 dilutions of thirty GD sera were added. After an additional 40 min, the incubation was stopped and total cAMP levels were measured by ELISA. […] The data are representative of 2 experiments performed in duplicate.
# TSHR [5] = target: T1, TSHR; assay: Basal (agonist-independent) cAMP production in HEK-EM 293 cells stably expressing TSHRs; type: cell-based; settings: for classification from dose response of basal cAMP (inverse agonist activity): 60 min in HBSS + 1 mM IBMX, % of basal activity
# Experimental: (§3) After 60 min, the cells were lysed and cAMP levels were measured by ELISA.
# (§4) Non-treated cells, incubated with IBMX only, were used as control (basal activity). After 60 min, the cells were lysed and cAMP levels were measured by ELISA. […] After 40 min, the incubation was stopped and total cAMP levels were measured by ELISA.
# HEK-EM 293 cells stably expressing TSHRs were exposed to the noted concentrations of the small molecule ligands for 60 min in HBSS+1 mM IBMX. Non-treated cells, incubated with IBMX only, were used as control (basal activity). After 60 min, the cells were lysed and cAMP levels were measured by ELISA.
# (§5) Determination of cAMP production.
# TSHR [6] = target: T1, TSHR; assay: TSH-stimulated cAMP production in HEK-EM 293 cells stably expressing TSHRs; type: cell-based; settings: for classification from dose response of TSH-stimulated cAMP (FIG. 11): 1 mU/ml hTSH (EC50 dose)
# Experimental: as §3, §4
# After 40 min, the incubation was stopped and total cAMP levels were measured by ELISA. The data are from 2 experiments with duplicate samples and are presented as mean±SE.
# as §5
# TSHR [7] = target: T1, TSHR; assay: 125I-TSH binding to TSHRs on the surface of HEK-EM 293 cells; settings: HEK-EM 293 / HEKTSHR cells
# Experimental: HEK-EM293 cells stably expressing TSHRs were seeded into 24-well plates and grown to near confluency. Cell surface binding was measured by incubation in 0.25 ml binding buffer (HBSS containing 2.5% milk powder and 0.2% BSA) containing 60,000 cpm bovine ^125I-TSH without or with xx μM 1 for 2 hr at RT; nonspecific binding was measured in the presence of 1.8 μM unlabeled bovine TSH. Cells were washed 3 times with 0.5 ml ice cold HBSS and lysed with 0.5 ml 0.4 N NaOH, and the cell-associated radioactivity counted in a gamma counter.
# [8] = target: T2, TSHRs on retro-orbital fibroblasts (Homo sapiens, UniProt P16473); assay: TSHR signaling in retro-orbital fibroblasts from patients with Graves' orbitopathy; type: cell-based; settings: preliminary experiment; fibroblasts in cell culture
# T2 construct: endogenous in cells; host or cells: cultured retro-orbital fibroblasts from Graves' orbitopathy patients
# Description: In a preliminary experiment, it has been shown that compound S2-6 inhibits activation of TSHRs on retro-orbital fibroblasts acquired from patients with Graves' orbitopathy. Retro-orbital fibroblasts were obtained from patients undergoing decompression eye surgery for Graves' orbitopathy and were adapted to cell culture.
# [9] = cited from earlier work
# T1 sequence (P16473 21-764): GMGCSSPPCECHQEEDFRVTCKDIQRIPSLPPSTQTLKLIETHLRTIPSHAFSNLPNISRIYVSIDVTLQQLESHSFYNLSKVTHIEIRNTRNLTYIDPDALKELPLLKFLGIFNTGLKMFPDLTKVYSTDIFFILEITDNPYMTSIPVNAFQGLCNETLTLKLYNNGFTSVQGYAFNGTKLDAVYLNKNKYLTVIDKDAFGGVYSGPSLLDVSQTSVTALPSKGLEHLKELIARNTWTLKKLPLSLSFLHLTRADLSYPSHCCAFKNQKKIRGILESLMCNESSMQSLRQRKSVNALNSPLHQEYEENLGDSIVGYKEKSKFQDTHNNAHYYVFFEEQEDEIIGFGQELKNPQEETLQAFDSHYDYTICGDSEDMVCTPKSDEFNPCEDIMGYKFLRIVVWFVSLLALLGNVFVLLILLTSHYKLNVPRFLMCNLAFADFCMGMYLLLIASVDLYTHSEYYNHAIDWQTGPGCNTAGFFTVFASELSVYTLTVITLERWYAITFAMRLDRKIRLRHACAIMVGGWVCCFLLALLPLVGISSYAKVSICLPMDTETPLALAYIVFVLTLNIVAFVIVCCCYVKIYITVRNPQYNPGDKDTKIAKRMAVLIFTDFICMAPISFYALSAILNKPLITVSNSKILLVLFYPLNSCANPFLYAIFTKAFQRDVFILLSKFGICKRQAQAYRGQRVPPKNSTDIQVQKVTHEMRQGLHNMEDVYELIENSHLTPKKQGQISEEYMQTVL
# T2 sequence (P16473 21-764): as above
smiles,measurement,setting,value
"COc1ccc(C2Nc3ccccc3C(=O)N2Cc2ccco2)cc1COc1c(C)cccc1C (centres unmarked) [Compound 1, 2-(3-((2,6-dimethylphenoxy)methyl)-4-methoxyphenyl)-3-(furan-2-ylmethyl)-2,3-dihydroquinazolin-4(1H)-one]",cAMP accumulation stimulated by vasoactive intestinal peptide,[1],did not decrease
same,DIO2 mRNA level,[2],decreased
same,NIS mRNA level,[2],decreased
same,TG mRNA level,[2],decreased
same,TPO mRNA level,[2],decreased
same,TSHR mRNA level,[2],decreased
same,cAMP accumulation stimulated by isoproterenol,beta-adrenergic receptor,did not decrease
same,cAMP accumulation stimulated by forskolin,adenylyl cyclase,did not decrease
"COc1ccc(C2Nc3ccccc3C(=O)N2Cc2cccnc2)cc1COc1c(C)cccc1C (centres unmarked) [Compound S2-6, 2-(3-((2,6-dimethylphenoxy)methyl)-4-methoxyphenyl)-3-(pyridin-3-ylmethyl)-2,3-dihydroquinazolin-4-one]",inhibition of basal and GD sera TSAb up-regulation of thyroperoxidase mRNA levels,TPO mRNA,65±2.0%
same,potency and efficacy as TSHR antagonist relative to compound 1,TSHR [3],as potent and effective as compound 1
same,inhibition at 30 µM,TSHR [4],39 ± 2.6%
same,classification from dose response of basal cAMP (inverse agonist activity),TSHR [5],inverse agonists
same,inhibition at 30 µM,"TSHR [5]; HEK-EM293, read-out: inhibition of basal cAMP production by TSHRs at 30 μM",53%
same,classification from dose response of TSH-stimulated cAMP (FIG. 11),TSHR [6],neutral antagonists
same,inhibition at 30 µM,"TSHR [6]; HEK-EM293, read-out: inhibition of cAMP production stimulated by an EC50 concentration of TSH at 30 μM",53%
same,mode of antagonism of TSH signaling,TSHR [6]; varying TSH concentrations (Schild analysis for compound 1),competitive
same,effect on 125I-TSH binding to TSHRs,TSHR [7],no effect
same,inhibition of basal signaling in retro-orbital fibroblasts,[8],75%
same,inhibition of thyroid-stimulating antibody-stimulated signaling in retro-orbital fibroblasts,[8],85%
same,solubility relative to compound 1,[9],increased solubility
"COc1ccc(C2Nc3ccccc3C(=O)N2Cc2ccco2)cc1COc1c(C)cc(NC(C)=O)cc1C (centres unmarked) [Compound S2-7, N-(4-(5-(3-(Furan-2-ylmethyl)-4-oxo-1,2,3,4-tetrahydroquinazolin-2-yl)-2-methoxybenzyloxy)-3,5-dimethylphenyl)acetamide]",classification from dose response of basal cAMP (inverse agonist activity),TSHR [5],inverse agonists
same,classification from dose response of TSH-stimulated cAMP (FIG. 11),TSHR [6],neutral antagonists
"COc1ccc(C2Nc3ccccc3C(=O)N2Cc2ccco2)cc1CSc1c(C)cccc1C (centres unmarked) [Compound S2-8, 2-(3-((2,6-Dimethylphenylthio)methyl)-4-methoxyphenyl)-3-(furan-2-ylmethyl)-2,3-dihydroquinazolin-4(1H)-one]",classification from dose response of basal cAMP (inverse agonist activity),TSHR [5],neutral antagonist
same,classification from dose response of TSH-stimulated cAMP (FIG. 11),TSHR [6],neutral antagonists
"COc1ccc(C2Nc3ccccc3C(=O)N2Cc2cccnc2)cc1COc1c(C)cc(NC(C)=O)cc1C (centres unmarked) [Compound S2-17, N-(4-(2-Methoxy-5-(4-oxo-3-(pyridin-3-ylmethyl)-1,2,3,4-tetrahydroquinazolin-2-yl)benzyloxy)-3,5-dimethylphenyl)acetamide]",classification from dose response of TSH-stimulated cAMP (FIG. 11),TSHR [6],neutral antagonists
"COCCN1C(=O)c2ccccc2NC1c1ccc(OC)c(COc2c(C)cc(NC(C)=O)cc2C)c1 (centres unmarked) [Compound S2-29, N-(4-(2-methoxy-5-(3-(2-methoxyethyl)-4-oxo-1,2,3,4-tetrahydroquinazolin-2-yl)benzyloxy)-3,5-dimethylphenyl)acetamide]",classification from dose response of TSH-stimulated cAMP (FIG. 11),TSHR [6],neutral antagonists

# From patent US9206154B2 (The United States of America, as represented by the …, priority 2010, dated 2015)
